Measurements published in PMC10541198, “Specific quinone reductase 2 inhibitors reduce metabolic burden and reverse Alzheimer’s disease phenotype in mice” (The Journal of Clinical Investigation, 2023).
Several values for one entry are separate records, joined by “and”; a condition that tells them apart may be missing. Equal entries are not always repeated.

What was measured:
Format in all cases: in vivo, mouse
[1] = tested on: Iba1; experiment: IHC of Iba1 (microglia activation) in 5xFAD brain sections; conditions: for Iba1 normalized volume (individual mice): CA1, 5xFAD 1 month; for Figure 9D, IHC signal: individual animals; for Iba1 vs vehicle: cortex, 5xFAD 1 month
Excerpt: (§1) Following the behavioral experiments, we assessed brain pathologies associated with AD present in the 5xFAD mice ([37]). Therefore, 5 days following the last behavioral experiment, and 1 month after the start of YB-537 consumption, mice were sacrificed, and coronal brain sections were used for IHC. Since the CA1 region of the hippocampus is affected during AD pathogenesis ([37]), and this brain region is involved in the behavioral paradigms used here, we acquired images of CA1. This was done with an Olympus IX83 confocal microscope using the same settings, antibodies, and exposures in all mice. Images were analyzed using Imaris (Bitplane; see methods). For each mouse, 3 coronal sections were used per antibody. In each section, the same region of CA1 was acquired, using the same image frame size and resolution, at all possible depths of the section — using a Z-stack of the whole section — to allow measurement of the fluorescent antibody marker volume, which was normalized to the brain volume from which it was taken. First, we measured oxidative stress, as indicated by 4-HNE ([38]) (Abcam, ab48506).
(§2) Perfused and fixed brain slices were blocked with 10% normal donkey serum (DNS) and 0.2% triton (Sigma-Aldrich) in PBS. Antibodies, including 4-HNE (AbCam, ab48506), Iba1 (AbCam, ab5076), AT-8 (Thermo, MN1020), Amyloid β (AbCam, ab201060), diluted in PBS with 10% DNS, were incubated at 4°C overnight. Secondary antibodies including donkey-anti-goat Alexa Fluor 568 (AbCam, ab175704), donkey-anti-mouse Cy 5 (Jackson Immuno Research, 715-175-151), and donkey-anti-rabbit DyLight 488 (AbCam, ab98488) all diluted 1:500 in PBS with 1% BSA, were applied to the slices at RT for 2 hours the next day. Slices were mounted onto glass slides using DAPI containing Vectashield (H-1200). Images were taken using a confocal microscope (Olympus IX83). Three slices were used per mouse per antibody. Tiling images of the dorsal CA1 and cortex (Bregma: –1.58mm to –2.30mm) were taken using ×20 objective, acquiring a Z-stack of the whole section. Analysis of the images was done blind by an experimenter unaware of the experimental conditions or details, using Imaris (Bitplane) software. A surface reconstruction module was used to extract the data as volumes of the used markers (4-HNE, phospho-tau, amyloid β, GFAP, and Iba1). Marker volume and intensity were normalized to the corresponding brain volume. The normalized value was averaged for each triplicate and presented here. […]
(§3) Brains were then briefly removed and placed in chilled, 4% PFA for 48 h, f oll owe d by immersion in 30% sucrose in 0.1 M PBS for a furt her 48 h. Bra i ns wer e t h e n stored at -80°C, until t he y were sliced into 40µm coronal sections usinga Lei ca CM 1950cryostat. Sli ces were then washed x3 in PBS and bl oc ke d for 1 h at RT using 10% normal donkey serum (DNS) and 0.2% triton (Sigma-Aldrich) in PBS. Antibodies, including 4- HNE (1:500, AbCam, ab48506), Iba1 (1:2,000, AbCam, ab5076), GFAP (Abcam, ab53554), phospho- tau (1:1,000, Thermo, MN1020) and amyloid β (1:1,000, AbCam, ab201060) diluted in PBS with 10% DNS were incubated at 4°C overnight. The next day, the slices were washed x3 times in PBS, and secondary antibodies including donkey anti goat A l e x a Fluor 568 (AbCam, ab175704), donkey anti-mouse Cy 5 (Jackson Immuno Research, 715- 175- 151) and donkey anti-rabbit DyLight 488 (AbCam, ab98488) all diluted 1:500 in PBS with 1% BSA, were applied to the slices at RT for 2 h. Following the incubation, the slices were washed x3 times in PBS, mounted onto gl ass slides, were uniformly covered in DAPI containing Vectashield (H-1200) and coverslips were a dde d. […]

[2] = tested on: 4-HNE; experiment: IHC of 4-HNE in 5xFAD brain sections; design: 4-HNE upper quartile / 4-HNE lower quartile: unit not given here; conditions: for 4-HNE distribution (F test) / 4-HNE lower quartile / 4-HNE normalized volume (individual mice) / 4-HNE upper quartile: CA1, 5xFAD 1 month; for Figure 9A, IHC signal / Sup. Fig. 6-1A, IHC signal: individual animals; for 4-HNE vs vehicle: cortex, 5xFAD 1 month
Excerpt: as §1, §2, §3

[3] = tested on: p-tau; experiment: IHC of p-tau (AT8) in 5xFAD brain sections; conditions: for p-tau normalized volume (individual mice): CA1, 5xFAD 1 month; for Figure 9C, IHC signal / Sup. Fig. 6-1C, IHC signal: individual animals; for p-Tau vs vehicle: cortex, 5xFAD 1 month
Excerpt: as §1, §2, §3

Cc1ccc(-c2cn3cccc(C)c3n2)cc1S(=O)(=O)N1CCNCC1 [YB-537]
Iba1 normalized volume (individual mice) ([1]; Females): 0.0305 and 0.0266 and 0.0346 and 0.0314 and 0.0200 and 0.0191 and 0.0158 | Iba1 normalized volume (individual mice) ([1]; Males): 0.0473 and 0.0384 and 0.0542 and 0.0369 and 0.0352 and 0.0318 and 0.0209 and 0.0414 and 0.0362 | Iba1 normalized volume (individual mice) ([1]; Males + Females): 0.0473 and 0.0384 and 0.0542 and 0.0369 and 0.0352 and 0.0314 and 0.0200 and 0.0191 and 0.0158 and 0.0305 and 0.0266 and 0.0346 and 0.0318 and 0.0209 and 0.0414 and 0.0362 | Figure 9D, IHC signal ([1]; Cortex): 0.0209 and 0.0186 and 0.0218 and 0.0206 and 0.0305 and 0.0198 and 0.0227 | Figure 9D, IHC signal ([1]; Hippocampus): 0.0213 and 0.0206 and 0.0202 and 0.0175 and 0.0174 and 0.0220 and 0.0296 and 0.0197 | Iba1 vs vehicle ([1]; females): significantly reduced | Iba1 vs vehicle ([1]; males): insignificantly reduced | Iba1 vs vehicle ([1]; total population): significantly reduced | 4-HNE distribution (F test) ([2]; Females): significantly changes distribution | 4-HNE lower quartile ([2]; Females): 0.0409 | 4-HNE normalized volume (individual mice) ([2]; Females): 0.0514 and 0.0389 and 0.0542 and 0.0413 and 0.0409 and 0.0433 and 0.0449 | 4-HNE upper quartile ([2]; Females): 0.0514 | 4-HNE normalized volume (individual mice) ([2]; Males): 0.0457 and 0.0892 and 0.0543 and 0.0490 and 0.0489 and 0.0313 and 0.0587 and 0.0539 and 0.0508 | 4-HNE normalized volume (individual mice) ([2]; Males + Females): 0.0514 and 0.0389 and 0.0542 and 0.0313 and 0.0587 and 0.0539 and 0.0508 and 0.0457 and 0.0892 and 0.0543 and 0.0490 and 0.0489 and 0.0413 and 0.0409 and 0.0433 and 0.0449 | 4-HNE lower quartile ([2]; both sexes): 0.0418 | 4-HNE upper quartile ([2]; both sexes): 0.0541 | 4-HNE distribution (F test) ([2]; total population): tends to alter distribution | Figure 9A, IHC signal ([2]; Cortex): 0.0148 and 0.0125 and 0.0103 and 0.0159 and 0.0128 and 0.0161 and 0.0104 and 0.0145 and 0.0118 | Sup. Fig. 6-1A, IHC signal ([2]; Females): 0.0214 and 0.0277 and 0.0236 and 0.0333 and 0.0429 and 0.0318 and 0.0155 | Figure 9A, IHC signal ([2]; Hippocampus): 0.0222 and 0.0139 and 0.0101 and 0.0187 and 0.0170 and 0.0160 and 0.0186 and 0.0121 and 0.0197 | Sup. Fig. 6-1A, IHC signal ([2]; Males + Females): 0.0231 and 0.0112 and 0.0400 and 0.0392 and 0.0271 and 0.0198 and 0.0429 and 0.0318 and 0.0155 and 0.0214 and 0.0277 and 0.0236 and 0.0333 and 0.0301 and 0.0174 and 0.0275 | Sup. Fig. 6-1A, IHC signal ([2]; Males): 0.0231 and 0.0112 and 0.0400 and 0.0392 and 0.0271 and 0.0198 and 0.0301 and 0.0174 and 0.0275 | 4-HNE vs vehicle ([2]; females): not significantly altered | 4-HNE vs vehicle ([2]; males): not significantly altered | 4-HNE vs vehicle ([2]; total population): not significantly altered | p-tau normalized volume (individual mice) ([3]; Females): 0.0465 and 0.0384 and 0.0492 and 0.0132 and 0.0255 and 0.0111 and 0.0090 | p-tau normalized volume (individual mice) ([3]; Males): 0.0610 and 0.0859 and 0.0662 and 0.0488 and 0.0445 and 0.0550 and 0.1044 and 0.0487 and 0.0628 | p-tau normalized volume (individual mice) ([3]; Males + Females): 0.0465 and 0.0384 and 0.0492 and 0.0550 and 0.1044 and 0.0487 and 0.0628 and 0.0610 and 0.0859 and 0.0662 and 0.0488 and 0.0445 and 0.0132 and 0.0255 and 0.0111 and 0.0090 | Figure 9C, IHC signal ([3]; Cortex): 0.0130 and 0.0160 and 0.0210 and 0.0219 and 0.0108 and 0.0168 and 0.0118 and 0.0284 and 0.0147 | Sup. Fig. 6-1C, IHC signal ([3]; Females): 0.0087 and 0.0158 and 0.0323 and 0.0264 and 0.0119 and 0.0169 and 0.0098 | Figure 9C, IHC signal ([3]; Hippocampus): 0.0315 and 0.0219 and 0.0395 and 0.0356 and 0.0234 and 0.0118 and 0.0425 and 0.0378 and 0.0364 | Sup. Fig. 6-1C, IHC signal ([3]; Males): 0.0177 and 0.0343 and 0.0259 and 0.0422 and 0.0294 and 0.0273 and 0.0409 and 0.0167 and 0.0342 | p-Tau vs vehicle ([3]; females): unchanged | p-Tau vs vehicle ([3]; males): unchanged | p-Tau vs vehicle ([3]; total population): unchanged
